Laboratory results taken from EP0136464A2, “Therapeutic compositions for oral use containing stable S-Adenosy1-L-Methionine salts” (BIORESEARCH S.p.A., priority 1983, dated 1985).

Tested on: Reaction to heat, tail flick test in the rat
Test: Reaction to heat, tail flick test in the rat (analgesic activity)
Format: in vivo, male Sprague-Dawley rats
Details: in vivo, 5 mg/kg
Protocol: In the experiments carried out on animals which received the SAMe orally, the drug was dissolved in physiological solution and administered by gastric probe in a volume of 0.5 ml/100 g of body weight. An equal volume of physiological solution was administered to the controls.
In the experiments in which SAMe was administered intraduodenally, the animals anesthetised with ether were subjected to laparotomy to allow the insertion into the duodenum of gelatin capsules (size 4) containing the product.
After inserting the capsule, the duodenum was sutured carefully so as not to traumatise the tissue and was then returned to its seat, the muscular and cutaneous layers then being re-composed and sutured.
The control animals received an empty gelatin capsule by the same procedure.
1) Reaction to heat, tail flick test in the rat.
The analgesic activity of SAMe was evaluated in male Sprague-Dawley rats of about 190 g weight by the method of D'Amour and Smith (J. Pharmacol. Exp. Theor. 71, 74 (1941)).
The SAMe was administered either orally or in gelatin capsules into the duodenum in doses of 50 and 100 mg/kg.
Morphine was used as the comparison drug and was administered under the cutis at a dose of 5 mg/kg.
The analgesic activity was determined 30, 60 and 120 minutes after administration of the drugs.
The results represent the mean + S.E. for the number of animals indicated in parentheses. The morphine was administered under the cutis to rats which received one empty capsule into the duodenum.

## CN1CC[C@]23c4c5ccc(O)c4O[C@H]2[C@@H](O)C=C[C@H]3[C@H]1C5 [Morphine, reference compound]
  analgesic activity with respect to the controls: powerful analgesic activity (P<0.01)
